Reference: publication PMC7393338 (Acta Pharmacologica Sinica, 2020)

Key:
[1] = intratracheal administration versus other routes, rats
SARS-CoV-2 PLpro = SARS-CoV-2 PLpro (Severe acute respiratory syndrome coronavirus 2, UniProt P0DTD1); assay: biochemical; conditions: read-out: PLpro Inhibition (%)

For `O=c1cc(-c2ccccc2)oc2cc(O)c(O)c(O)c12` [Baicalein], the “target tissue (lung) distribution” value [1] was “significantly increase their target tissue distribution” and the inhibition at 50 µM (SARS-CoV-2 PLpro) was less than 50%.
